Values after ≈ are worked out from the molar mass of the structure shown.
How the values were obtained:
S. pneum. 9585 = experiment: Minimum Inhibitory Concentration against S. pneum. 9585; format: cell-based; details: Mueller-Hinton Broth, 10^-4 organism dilution, read-out: M.I.C. (Minimum Inhibitory Concentration)
Excerpt: (§1) Minimum Inhibitory Concentration Of
(§2) 5-deoxykanamycin A Against Various
(§3) Microorganisms (mcg./ml.)
(§4) ^a = 45% Antibiotic Assay Broth, 50% Mueller-Hinton Broth and 5%
(§5) serum. All others are Mueller-Hinton Broth.
(§6) ^b = 10^-3 Organism dilution. All others are 10^-4 organism

S. pyogenes 9604 = experiment: Minimum Inhibitory Concentration against S. pyogenes 9604; format: cell-based; details: Streptococcus pyogenes, 45% Antibiotic Assay Broth, 50% Mueller-Hinton Broth and 5% serum, 10^-3 organism dilution, read-out: M.I.C. (Minimum Inhibitory Concentration)
Excerpt: as §1, §2, §3, §4, §5, §6

E. coli 21218 = experiment: Minimum Inhibitory Concentration against E. coli 21218; format: cell-based; details: Escherichia coli, Mueller-Hinton Broth, 10^-3 organism dilution, read-out: M.I.C. (Minimum Inhibitory Concentration)
Excerpt: as §1, §2, §3, §4, §5, §6

E. cloacae 21006 = experiment: Minimum Inhibitory Concentration against E. cloacae 21006; format: cell-based; details: Enterobacter cloacae, Mueller-Hinton Broth, 10^-3 organism dilution, read-out: M.I.C. (Minimum Inhibitory Concentration)
Excerpt: as §1, §2, §3, §4, §5, §6

S. aureus 9537 = experiment: Minimum Inhibitory Concentration against S. aureus 9537; format: cell-based; details: Staphylococcus aureus, Mueller-Hinton Broth, 10^-4 organism dilution, read-out: M.I.C. (Minimum Inhibitory Concentration)
Excerpt: as §1, §2, §3, §4, §5, §6

S. aureus 20240 = experiment: Minimum Inhibitory Concentration against S. aureus 20240; format: cell-based; details: Staphylococcus aureus, Mueller-Hinton Broth, 10^-4 organism dilution, read-out: M.I.C. (Minimum Inhibitory Concentration)
Excerpt: as §1, §2, §3, §4, §5, §6

P. aerug. 9843A = experiment: Minimum Inhibitory Concentration against P. aerug. 9843A; format: cell-based; details: Mueller-Hinton Broth, 10^-4 organism dilution, read-out: M.I.C. (Minimum Inhibitory Concentration)
Excerpt: as §1, §2, §3, §4, §5, §6

P. rettgeri 21207 = experiment: Minimum Inhibitory Concentration against P. rettgeri 21207; format: cell-based; details: Providencia rettgeri, Mueller-Hinton Broth, 10^-3 organism dilution, read-out: M.I.C. (Minimum Inhibitory Concentration)
Excerpt: as §1, §2, §3, §4, §5, §6

P. aerug. 20653 = experiment: Minimum Inhibitory Concentration against P. aerug. 20653; format: cell-based; details: Mueller-Hinton Broth, 10^-4 organism dilution, read-out: M.I.C. (Minimum Inhibitory Concentration)
Excerpt: as §1, §2, §3, §4, §5, §6

P. stuartii 21210 = experiment: Minimum Inhibitory Concentration against P. stuartii 21210; format: cell-based; details: Providencia stuartii, Mueller-Hinton Broth, 10^-4 organism dilution, read-out: M.I.C. (Minimum Inhibitory Concentration)
Excerpt: as §1, §2, §3, §4, §5, §6

E. coli 20665 = experiment: Minimum Inhibitory Concentration against E. coli 20665; format: cell-based; details: Escherichia coli, Mueller-Hinton Broth, 10^-3 organism dilution, read-out: M.I.C. (Minimum Inhibitory Concentration)
Excerpt: as §1, §2, §3, §4, §5, §6

P. aerug. 20741 = experiment: Minimum Inhibitory Concentration against P. aerug. 20741; format: cell-based; details: Mueller-Hinton Broth, 10^-4 organism dilution, read-out: M.I.C. (Minimum Inhibitory Concentration)
Excerpt: as §1, §2, §3, §4, §5, §6

S. aureus 9606 = experiment: Minimum Inhibitory Concentration against S. aureus 9606; format: cell-based; details: Staphylococcus aureus, Mueller-Hinton Broth, 10^-4 organism dilution, read-out: M.I.C. (Minimum Inhibitory Concentration)
Excerpt: as §1, §2, §3, §4, §5, §6

E. cloacae 20364 = experiment: Minimum Inhibitory Concentration against E. cloacae 20364; format: cell-based; details: Enterobacter cloacae, Mueller-Hinton Broth, 10^-3 organism dilution, read-out: M.I.C. (Minimum Inhibitory Concentration)
Excerpt: as §1, §2, §3, §4, §5, §6

E. coli 9632 = experiment: Minimum Inhibitory Concentration against E. coli 9632; format: cell-based; details: Escherichia coli, Mueller-Hinton Broth, 10^-3 organism dilution, read-out: M.I.C. (Minimum Inhibitory Concentration)
Excerpt: as §1, §2, §3, §4, §5, §6

P. aerug. 20717 = experiment: Minimum Inhibitory Concentration against P. aerug. 20717; format: cell-based; details: Mueller-Hinton Broth, 10^-4 organism dilution, read-out: M.I.C. (Minimum Inhibitory Concentration)
Excerpt: as §1, §2, §3, §4, §5, §6

E. cloacae 9656 = experiment: Minimum Inhibitory Concentration against E. cloacae 9656; format: cell-based; details: Enterobacter cloacae, Mueller-Hinton Broth, 10^-4 organism dilution, read-out: M.I.C. (Minimum Inhibitory Concentration)
Excerpt: as §1, §2, §3, §4, §5, §6

K. pneum. 9977 = experiment: Minimum Inhibitory Concentration against K. pneum. 9977; format: cell-based; details: Mueller-Hinton Broth, 10^-4 organism dilution, read-out: M.I.C. (Minimum Inhibitory Concentration)
Excerpt: as §1, §2, §3, §4, §5, §6

E. coli 20895 = experiment: Minimum Inhibitory Concentration against E. coli 20895; format: cell-based; details: Escherichia coli, Mueller-Hinton Broth, 10^-3 organism dilution, read-out: M.I.C. (Minimum Inhibitory Concentration)
Excerpt: as §1, §2, §3, §4, §5, §6

P. stuartii 20894 = experiment: Minimum Inhibitory Concentration against P. stuartii 20894; format: cell-based; details: Providencia stuartii, Mueller-Hinton Broth, 10^-3 organism dilution, read-out: M.I.C. (Minimum Inhibitory Concentration)
Excerpt: as §1, §2, §3, §4, §5, §6

E. coli 20683 = experiment: Minimum Inhibitory Concentration against E. coli 20683; format: cell-based; details: Escherichia coli, Mueller-Hinton Broth, 10^-3 organism dilution, read-out: M.I.C. (Minimum Inhibitory Concentration)
Excerpt: as §1, §2, §3, §4, §5, §6

P. mirab. 9900 = experiment: Minimum Inhibitory Concentration against P. mirab. 9900; format: cell-based; details: Mueller-Hinton Broth, 10^-4 organism dilution, read-out: M.I.C. (Minimum Inhibitory Concentration)
Excerpt: as §1, §2, §3, §4, §5, §6

S. marc. 20460 = experiment: Minimum Inhibitory Concentration against S. marc. 20460; format: cell-based; details: Mueller-Hinton Broth, 10^-4 organism dilution, read-out: M.I.C. (Minimum Inhibitory Concentration)
Excerpt: as §1, §2, §3, §4, §5, §6

P. aerug. 20601 = experiment: Minimum Inhibitory Concentration against P. aerug. 20601; format: cell-based; details: Mueller-Hinton Broth, 10^-4 organism dilution, read-out: M.I.C. (Minimum Inhibitory Concentration)
Excerpt: as §1, §2, §3, §4, §5, §6

P. rettgeri 9637 = experiment: Minimum Inhibitory Concentration against P. rettgeri 9637; format: cell-based; details: Providencia rettgeri, Mueller-Hinton Broth, 10^-4 organism dilution, read-out: M.I.C. (Minimum Inhibitory Concentration)
Excerpt: as §1, §2, §3, §4, §5, §6

E. coli 20732 = experiment: Minimum Inhibitory Concentration against E. coli 20732; format: cell-based; details: Escherichia coli, Mueller-Hinton Broth, 10^-3 organism dilution, read-out: M.I.C. (Minimum Inhibitory Concentration)
Excerpt: as §1, §2, §3, §4, §5, §6

S. marc. 20019 = experiment: Minimum Inhibitory Concentration against S. marc. 20019; format: cell-based; details: Mueller-Hinton Broth, 10^-4 organism dilution, read-out: M.I.C. (Minimum Inhibitory Concentration)
Excerpt: as §1, §2, §3, §4, §5, §6

P. aerug. 21509 = experiment: Minimum Inhibitory Concentration against P. aerug. 21509; format: cell-based; details: Mueller-Hinton Broth, 10^-4 organism dilution, read-out: M.I.C. (Minimum Inhibitory Concentration)
Excerpt: as §1, §2, §3, §4, §5, §6

[1] = background statement on positional isomers; cited from earlier work

SMILES: NC[C@H]1O[C@H](O[C@H]2C[C@@H](O[C@H]3O[C@H](CO)[C@@H](O)[C@H](N)[C@H]3O)[C@H](N)C[C@@H]2N)[C@H](O)[C@@H](O)[C@@H]1O [5-deoxykanamycin A, 5-Deoxykanamycin A]
- MIC (S. pneum. 9585): 125 µg/mL (≈ 267 µM)
- MIC (S. pyogenes 9604): 125 µg/mL (≈ 267 µM)
- MIC (E. coli 21218): > 125 µg/mL
- MIC (E. cloacae 21006): > 125 µg/mL
- MIC (S. aureus 9537): 2 µg/mL (≈ 4.27 µM)
- MIC (S. aureus 20240): > 125 µg/mL
- MIC (P. aerug. 9843A): > 125 µg/mL
- MIC (P. rettgeri 21207): 16 µg/mL (≈ 34.2 µM)
- MIC (P. aerug. 20653): > 125 µg/mL
- MIC (P. stuartii 21210): 4 µg/mL (≈ 8.54 µM)
- MIC (E. coli 20665): > 125 µg/mL
- MIC (P. aerug. 20741): > 125 µg/mL
- MIC (S. aureus 9606): 4 µg/mL (≈ 8.54 µM)
- MIC (E. cloacae 20364): > 125 µg/mL
- MIC (E. coli 9632): 8 µg/mL (≈ 17.1 µM)
- MIC (P. aerug. 20717): > 125 µg/mL
- MIC (E. cloacae 9656): 8 µg/mL (≈ 17.1 µM)
- MIC (K. pneum. 9977): 1 µg/mL (≈ 2.13 µM)
- MIC (E. coli 20895): 8 µg/mL (≈ 17.1 µM)
- MIC (P. stuartii 20894): 32 µg/mL (≈ 68.3 µM)
- MIC (E. coli 20683): > 125 µg/mL
- MIC (P. mirab. 9900): 32 µg/mL (≈ 68.3 µM)
- MIC (S. marc. 20460): > 125 µg/mL
- MIC (P. aerug. 20601): > 125 µg/mL
- MIC (P. rettgeri 9637): 1 µg/mL (≈ 2.13 µM)
- MIC (E. coli 20732): 125 µg/mL (≈ 267 µM)
- MIC (S. marc. 20019): 32 µg/mL (≈ 68.3 µM)
- MIC (P. aerug. 21509): > 125 µg/mL

SMILES: NC[C@H]1O[C@H](O[C@H]2[C@H](O)[C@@H](O)[C@H](N)C[C@@H]2N)[C@H](N)[C@@H](O)[C@@H]1O [neamine, 4-0-(2,6-dideoxy-2,6-diamino-α-D-glycopynanosyl) 2-deoxystreptamine]
- antibiotic activity [1]: biologically active
